Laboratory results: US10596110B2, “Residence structures and related methods” (Massachusetts Institute of Technology, priority 2014, dated 2020)

Assay: Stability of drugs in acidic conditions, in solution or in PCL structures (HPLC)
Format: physicochemical
Details: IAW, pH=1, 37° C.
Description: Stability of drugs in the gastric environment was evaluated using HPLC and LC-MS/MS analysis. Hydrophilic drugs were dissolved in simulated gastric fluid (SGF, 0.2% (w/v) NaCl, 0.83% (v/v) HCL, pH=1) in centrifuge tubes. Hydrophobic drugs were dissolved in IAW (isopropanol 70%, acetonitrile 20%, water 10%) with pH adjusted to 1 using HCL. As a control, drugs were dissolved in the same solvents with pH adjusted to 6.0 (using IM NaOH). After vortexing for 1 min and sonication for 10 min, tubes were placed in a shaking incubator (150 rpm, 37° C.). Samples were collected at defined time points for up to two weeks and analyzed by HPLC and LC-MS/MS to quantify the stability of drugs.
Stability of drugs loaded into PCL based delivery matrices were also studied. Loading of drugs is described below in Examples 16 and 17. Drug loaded structures were kept at acidic conditions (pH=1, 37° C.) and at defined intervals, drug was extracted from the PCL matrix and analyzed by HPLC and/or LC-MS/MS. In order to extract drugs, structures were sonicated in SGF (hydrophilic drugs) or isopropanol (hydrophobic drugs) for 10 min. Fresh drug in SGF or Isopropanol was prepared immediately before analysis as controls.
Ivermectin (IVM) loaded structures, shown in FIG. 16B, were placed in SGF+RH solution (pH=1, 37° C.) for 72 h. Drug was extracted by sonicating the structure in isopropanol for 10 min.

Ivermectin
Stability in acidic conditions (in solution): unstable
